This note sets out measurements from patent US6818445B2 (Synaptic Pharmaceutical Corporation, priority 1994, dated 2004).

Assay [1] deals with food intake of 24 h food-deprived rats. The assay can be described thus: Food intake in food-deprived rats. The assay is classed as in vivo, rat. Particulars: 30 mg/kg i.p. after 24 h food deprivation, percentage of intake compared to control rats.
Procedure: At the end of the equilibration period, food is removed from the animals for 24 hours starting at 8:00 a.m. At the end of the fasting period compound or vehicle may be administered to the animals orally or by injection intraperitoneally or intravenously. After 10-60 min. food is returned to the animals and their food intake is monitored at various time periods during the following 24 hour period. The food intake of animals treated with test compound may be calculated as a percentage of the food intake of control animals (i.e., animals treated with vehicle). Alternatively, food intake for each group of animals subjected to a particular experimental condition may be expressed as the mean±S.E.M.
Therefore, the Y5 antagonists of Table 14 were administered by intraperitoneal injection at a dose of 30 mg/kg to conscious rats following a 24 h food deprivation. […] Measurements were performed two hours after administration of the test compound.
For a further assay, the target named is T1, 5HT1a receptor (Homo sapiens, UniProt P08908).
T1 sequence (P08908 1-422): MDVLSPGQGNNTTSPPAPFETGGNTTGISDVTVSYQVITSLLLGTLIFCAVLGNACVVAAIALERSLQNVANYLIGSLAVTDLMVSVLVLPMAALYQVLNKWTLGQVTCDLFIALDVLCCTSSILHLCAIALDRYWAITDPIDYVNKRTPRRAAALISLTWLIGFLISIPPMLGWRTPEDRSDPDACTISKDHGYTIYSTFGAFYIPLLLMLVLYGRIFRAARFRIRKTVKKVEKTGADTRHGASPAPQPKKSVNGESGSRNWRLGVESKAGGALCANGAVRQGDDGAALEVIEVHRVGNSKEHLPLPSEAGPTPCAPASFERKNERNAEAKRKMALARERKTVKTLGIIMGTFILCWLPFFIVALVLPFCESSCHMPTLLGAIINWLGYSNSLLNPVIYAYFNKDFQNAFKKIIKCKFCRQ
Nature of the assay: Binding to cloned human 5HT1a receptor.

The target in the next assay is human 5HT2 receptor (Homo sapiens, UniProt P28223). Nature of the assay: Binding to human 5HT2 receptor, [3H]ketanserin. As to conditions: cloned human receptor.
The target of a further assay is human 5HT1Dβ receptor (Homo sapiens, UniProt P28222). Nature of the assay: Binding to human 5HT1Dβ receptor, [3H]serotonin. Particulars: cloned human receptor.
The next assay concerns the target T2, human α1d receptor (Homo sapiens, UniProt P25100).
T2 sequence (P25100 1-572): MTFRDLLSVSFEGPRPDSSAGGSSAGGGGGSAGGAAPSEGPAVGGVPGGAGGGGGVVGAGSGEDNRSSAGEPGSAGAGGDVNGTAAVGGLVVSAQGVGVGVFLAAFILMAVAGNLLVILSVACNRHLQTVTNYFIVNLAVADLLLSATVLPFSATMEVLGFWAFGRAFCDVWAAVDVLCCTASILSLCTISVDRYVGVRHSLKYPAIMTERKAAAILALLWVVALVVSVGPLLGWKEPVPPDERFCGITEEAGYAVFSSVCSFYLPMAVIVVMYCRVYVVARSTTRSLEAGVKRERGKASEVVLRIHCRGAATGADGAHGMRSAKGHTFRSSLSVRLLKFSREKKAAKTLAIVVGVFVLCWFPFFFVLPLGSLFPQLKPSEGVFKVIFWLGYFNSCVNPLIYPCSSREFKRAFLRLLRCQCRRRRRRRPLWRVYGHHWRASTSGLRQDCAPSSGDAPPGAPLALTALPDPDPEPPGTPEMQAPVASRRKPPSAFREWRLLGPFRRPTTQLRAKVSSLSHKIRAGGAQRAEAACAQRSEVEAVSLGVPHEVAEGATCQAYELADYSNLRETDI
The assay can be described thus: Binding to cloned human α1d adrenergic receptor.

For a further assay, the target named is human 5HT1Dα receptor (Homo sapiens, UniProt P28221). The assay can be described thus: Binding to human 5HT1Dα receptor, [3H]serotonin. Particulars: cloned human receptor.
For a further assay, the target named is T3, human α2A receptor (Homo sapiens, UniProt P08913).
T3 sequence (P08913 1-465): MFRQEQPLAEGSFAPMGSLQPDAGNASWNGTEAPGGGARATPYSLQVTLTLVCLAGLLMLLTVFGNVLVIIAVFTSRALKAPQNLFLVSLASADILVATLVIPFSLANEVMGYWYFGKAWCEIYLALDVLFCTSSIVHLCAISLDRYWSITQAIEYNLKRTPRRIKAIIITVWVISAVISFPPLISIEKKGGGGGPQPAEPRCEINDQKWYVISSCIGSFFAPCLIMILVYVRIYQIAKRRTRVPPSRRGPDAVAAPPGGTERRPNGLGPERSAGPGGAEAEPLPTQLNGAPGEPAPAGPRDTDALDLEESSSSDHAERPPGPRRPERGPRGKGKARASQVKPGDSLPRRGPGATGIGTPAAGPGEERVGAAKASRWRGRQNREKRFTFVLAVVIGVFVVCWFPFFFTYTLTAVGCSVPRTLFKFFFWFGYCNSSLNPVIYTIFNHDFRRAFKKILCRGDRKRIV
The assay can be described thus: Binding to cloned human α2A adrenergic receptor, [3H]rauwolscine.

For a further assay, the target named is T4, human α2C receptor (Homo sapiens, UniProt P18825).
T4 sequence (P18825 1-462): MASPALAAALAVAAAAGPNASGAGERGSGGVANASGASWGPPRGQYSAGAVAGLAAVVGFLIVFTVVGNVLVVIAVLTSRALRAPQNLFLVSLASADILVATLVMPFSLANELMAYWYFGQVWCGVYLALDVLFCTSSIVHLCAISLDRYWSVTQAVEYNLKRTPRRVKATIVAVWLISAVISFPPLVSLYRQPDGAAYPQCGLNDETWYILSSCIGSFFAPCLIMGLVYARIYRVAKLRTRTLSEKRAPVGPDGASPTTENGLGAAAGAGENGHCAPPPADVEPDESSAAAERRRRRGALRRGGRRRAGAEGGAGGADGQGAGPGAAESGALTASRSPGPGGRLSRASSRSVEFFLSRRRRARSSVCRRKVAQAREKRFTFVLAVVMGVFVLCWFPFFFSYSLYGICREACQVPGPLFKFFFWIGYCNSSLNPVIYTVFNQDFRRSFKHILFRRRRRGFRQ
The assay can be described thus: Binding to cloned human α2C adrenergic receptor, [3H]rauwolscine.

The target of assay [2] is human dopamine D3 receptor (Homo sapiens, UniProt P35462). Nature of the assay: Binding to human dopamine D3 receptor, [3H]spiperone. As to conditions: cloned human receptor.
The test system of assay [3] is NPY-induced feeding behavior in satiated rats. Nature of the assay: NPY-induced food intake in satiated rats. It is filed as in vivo, rat. As to conditions: compound 30 mg/kg i.p., then 300 pmole NPY i.c.v.; 4 hours after NPY.
Procedure: The rats are individually housed in stainless steel cages and maintained on an 11:13 h light-dark cycle (lights off at 18:00 h) at a controlled temperature of 21-23° C. at all times. Water and food (NAFAG lab chow pellets NAFAG, Gossau, Switzerland) are available ad libidum.
The guide cannula is placed on the dura. Injection cannulas extend the guide cannulas −3.8 mm ventrally to the skull surface. Animals are allowed at least 4 days of recovery postoperatively before being used in the experiments. Cannula placement is checked postoperatively by testing all rats for their drinking response to a 50 ng intracerebroventricular (i.c.v.) injection of angiotensin II. Only rats which drink at least 2.5 ml of water within 30 min. after angiotensin II injection are used in the feeding studies.
All injections are made in the morning 2 hours after light onset. Peptides are injected in artificial cerebrospinal fluid (ACSF) in a volume of 5 μl.
Pellets are then removed from the cage subsequently at each selected time point and replaced with a new set of preweighed pellets. The food intake of animals treated with test compound may be calculated as a percentage of the food intake of control animals i.e., animals treated with vehicle. Alternatively, food intake for each group of animals subjected to a particular experimental condition may be expressed as the mean±S.E.M. Statistical analysis is performed by analysis of variance using the Student-Newman-Keuls test.
Food intake is reported as the mean±S.E.M. intake for a group of animals.

human 5HT1Dα receptor, sequence (P28221 whole entry): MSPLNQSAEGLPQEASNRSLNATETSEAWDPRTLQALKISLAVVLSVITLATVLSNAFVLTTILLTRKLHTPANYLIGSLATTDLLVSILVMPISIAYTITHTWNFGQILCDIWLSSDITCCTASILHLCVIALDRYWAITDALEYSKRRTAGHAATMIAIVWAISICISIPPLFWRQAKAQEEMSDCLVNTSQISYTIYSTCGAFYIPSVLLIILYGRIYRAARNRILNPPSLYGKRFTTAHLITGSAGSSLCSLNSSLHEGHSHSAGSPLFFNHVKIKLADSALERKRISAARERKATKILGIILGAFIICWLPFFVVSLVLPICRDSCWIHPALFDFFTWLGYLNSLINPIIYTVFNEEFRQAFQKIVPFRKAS
human 5HT2 receptor, sequence (P28223 whole entry): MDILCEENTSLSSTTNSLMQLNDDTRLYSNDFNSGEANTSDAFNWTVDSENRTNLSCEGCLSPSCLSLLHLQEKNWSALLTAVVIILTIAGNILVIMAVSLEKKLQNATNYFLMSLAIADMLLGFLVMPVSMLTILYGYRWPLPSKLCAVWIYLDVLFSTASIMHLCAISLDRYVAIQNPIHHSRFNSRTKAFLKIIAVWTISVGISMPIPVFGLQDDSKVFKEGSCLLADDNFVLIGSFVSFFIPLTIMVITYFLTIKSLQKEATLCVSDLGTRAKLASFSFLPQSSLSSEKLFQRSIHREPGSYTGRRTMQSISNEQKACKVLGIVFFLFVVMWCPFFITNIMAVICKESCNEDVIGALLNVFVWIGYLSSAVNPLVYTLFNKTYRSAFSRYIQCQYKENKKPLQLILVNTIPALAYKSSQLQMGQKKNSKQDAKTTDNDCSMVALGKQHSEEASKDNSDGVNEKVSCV
human 5HT1Dβ receptor, sequence (P28222 whole entry): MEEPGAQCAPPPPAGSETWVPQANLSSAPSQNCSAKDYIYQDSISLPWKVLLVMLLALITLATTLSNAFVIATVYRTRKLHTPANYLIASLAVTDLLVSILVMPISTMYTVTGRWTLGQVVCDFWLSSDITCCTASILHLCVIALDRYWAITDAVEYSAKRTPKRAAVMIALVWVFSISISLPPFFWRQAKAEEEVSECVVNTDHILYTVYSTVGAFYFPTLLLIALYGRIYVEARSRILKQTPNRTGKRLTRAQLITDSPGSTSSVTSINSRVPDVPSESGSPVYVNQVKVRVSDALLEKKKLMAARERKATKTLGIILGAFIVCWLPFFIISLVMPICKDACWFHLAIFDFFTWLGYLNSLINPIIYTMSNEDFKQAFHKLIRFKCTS
human dopamine D3 receptor, sequence (P35462 whole entry): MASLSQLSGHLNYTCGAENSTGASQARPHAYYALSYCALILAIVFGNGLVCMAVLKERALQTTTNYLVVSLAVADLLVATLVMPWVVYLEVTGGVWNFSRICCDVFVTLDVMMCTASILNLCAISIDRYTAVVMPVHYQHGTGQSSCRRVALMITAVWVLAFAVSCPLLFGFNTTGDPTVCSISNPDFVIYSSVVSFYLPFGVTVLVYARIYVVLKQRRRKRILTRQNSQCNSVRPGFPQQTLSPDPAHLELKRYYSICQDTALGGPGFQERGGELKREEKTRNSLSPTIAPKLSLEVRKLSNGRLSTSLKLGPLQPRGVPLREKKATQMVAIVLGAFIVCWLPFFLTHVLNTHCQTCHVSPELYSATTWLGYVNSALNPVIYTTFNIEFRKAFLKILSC

With `Cl.Cl.Nc1ccccc1S(=O)(=O)NCC1CCC(CNCC2CCc3ccccc3C2)CC1` (stereo not drawn) [Compound 22], the “Two-hour food intake of food-deprived rats, Mean (%)” value (from here on “Two-hour food intake … (%)”) in assay [1] was found to be 55%. For the same molecule, at 5HT1a receptor, the “Receptor (pKi) 5HT1a” value is 6.56. Also, the “Receptor (pKi) 5HT2” value on human 5HT2 receptor amounted to 5.99. In addition, the “Receptor (pKi) 5HT1Dβ” value on human 5HT1Dβ receptor is 5.41. Also, the “Receptor (pKi) α1d” value on human α1d receptor is listed as 6.80. Also, the “Receptor (pKi) 5HT1Dα” value on human 5HT1Dα receptor came to 5.98. Further, at human α2A receptor, the “Receptor (pKi) α2a” value is 7.05. Besides, the “Receptor (pKi) α2c” value on human α2C receptor is listed as 7.15.

In the case of `Cl.O=[N+]([O-])c1ccccc1S(=O)(=O)NC[C@H]1CC[C@H](CNCC2CCc3ccccc3C2)CC1` (stereo partly drawn) [Compound 20], the “Two-hour food intake … (%)” value in assay [1] is on record as 35%. In addition, the “Receptor (pKi) D3” value in [2] was 6.35. In addition, the “Receptor (pKi) 5HT2” value at human 5HT2 receptor is 5.93. For the same molecule, the “Receptor (pKi) 5HT1Dβ” value at human 5HT1Dβ receptor amounted to 5.37. Further, the “Receptor (pKi) α1d” value on human α1d receptor is given as 7.01. The “Receptor (pKi) 5HT1Dα” value on human 5HT1Dα receptor is recorded as 5.94. Also, the “Receptor (pKi) α2a” value on human α2A receptor turned out to be 7.31. Also, on human α2C receptor, the “Receptor (pKi) α2c” value is recorded as 7.39.

For the molecule `Cl.O=S(=O)(NC[C@H]1CC[C@H](CNCC2CCc3ccccc3C2)CC1)c1cccc2ccccc12` (stereo partly drawn) [Compound 19], the “Food intake (g) mean ± S.E.M., NPY + compound” value in [3] turned out to be 1.5 ± 0.6 g. Also, the “Two-hour food intake … (%)” value in assay [1] is recorded as 36%. In [2], the “Receptor (pKi) D3” value worked out at 6.69. For the same molecule, the “Receptor (pKi) 5HT1a” value at 5HT1a receptor worked out at 5.54. The “Receptor (pKi) 5HT2” value at human 5HT2 receptor came to 6.55. Moreover, the “Receptor (pKi) α1d” value on human α1d receptor is listed as 6.90. Moreover, the “Receptor (pKi) 5HT1Dα” value on human 5HT1Dα receptor stood at 6.04. Besides, the “Receptor (pKi) α2a” value at human α2A receptor is on record as 6.74.
